# According to publication PMC10763615, “Identification and engineering of potent cyclic peptides with selective or promiscuous binding through biochemical profiling and bioinformatic data analysis” (RSC Chemical Biology, 2023):
# Read-outs that look alike come from different tables or passages of the source. Positions of bridges follow the written chain, without caps; N, C: chain ends. Residues, ends and D or L forms follow the SMILES beside them.
# Columns and labels:
# Type in all cases: binding
# FGF-R4 ECD = target: T1, FGF-R4 ECD (Homo sapiens, UniProt P22455); experiment: single concentration BLI of crude peptides; details: read-out: KD (4)
# T1 construct: DNA constructs for the extracellular domain (ECD) of human FGF-; HPC4 (C); made in house; host or cells: HEK 293-6E
# T1 sequence (P22455 22-369 limits assumed): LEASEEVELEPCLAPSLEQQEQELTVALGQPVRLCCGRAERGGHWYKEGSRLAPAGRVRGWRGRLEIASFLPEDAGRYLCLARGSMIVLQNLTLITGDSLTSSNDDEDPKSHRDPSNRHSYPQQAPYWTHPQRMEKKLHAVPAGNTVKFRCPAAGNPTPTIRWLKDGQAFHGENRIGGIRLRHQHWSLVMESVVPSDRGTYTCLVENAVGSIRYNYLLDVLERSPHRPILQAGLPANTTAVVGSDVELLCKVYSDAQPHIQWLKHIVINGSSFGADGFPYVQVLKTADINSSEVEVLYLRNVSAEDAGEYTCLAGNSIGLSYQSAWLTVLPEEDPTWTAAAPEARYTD
# Outline: (§1)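 Streptavidin biosensors carrying biotinylated FGF receptor ECD were immersed in peptide (~1 μM for crude single-point runs, a concentration series for purified peptides) and then in peptide-free buffer. KD was obtained by fitting the BLI association and dissociation curves.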
# FGF-R1C ECD = target: T2, FGF-R1C ECD (Homo sapiens, UniProt P11362); experiment: biochemical; design: DNA constructs for the extracellular domain (ECD) of human FGF-; HPC4 (C); made in house; host or cells: HEK 293-6E
# T2 sequence (P11362 22-376 limits assumed): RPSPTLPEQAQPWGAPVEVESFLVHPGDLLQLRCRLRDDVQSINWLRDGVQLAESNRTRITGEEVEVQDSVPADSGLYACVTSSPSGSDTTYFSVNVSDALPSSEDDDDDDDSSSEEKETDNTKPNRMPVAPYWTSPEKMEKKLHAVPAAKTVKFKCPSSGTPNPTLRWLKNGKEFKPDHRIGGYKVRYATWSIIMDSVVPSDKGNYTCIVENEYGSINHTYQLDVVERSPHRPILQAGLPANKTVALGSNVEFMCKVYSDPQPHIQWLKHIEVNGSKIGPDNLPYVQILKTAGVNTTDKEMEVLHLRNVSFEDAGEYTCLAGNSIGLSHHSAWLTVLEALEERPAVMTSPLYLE
# Outline: as §1
# FGF-R3C ECD = target: T3, FGF-R3C ECD (Homo sapiens, UniProt P22607); experiment: biochemical; design: DNA constructs for the extracellular domain (ECD) of human FGF-; HPC4 (C); made in house; host or cells: HEK 293-6E
# T3 sequence (P22607 23-375 limits assumed): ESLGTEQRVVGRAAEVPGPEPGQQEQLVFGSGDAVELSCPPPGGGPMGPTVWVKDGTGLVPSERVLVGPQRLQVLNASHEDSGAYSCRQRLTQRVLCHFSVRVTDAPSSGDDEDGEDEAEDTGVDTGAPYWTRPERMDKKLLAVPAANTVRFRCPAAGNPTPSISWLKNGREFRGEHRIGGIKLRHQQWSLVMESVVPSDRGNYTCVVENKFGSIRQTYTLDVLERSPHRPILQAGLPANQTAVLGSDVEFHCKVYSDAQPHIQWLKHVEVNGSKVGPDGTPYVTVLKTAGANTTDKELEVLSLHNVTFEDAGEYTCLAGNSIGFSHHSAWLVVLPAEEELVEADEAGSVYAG
# Outline: as §1
# [1] = crude T18 selection 1 (1:1:1) peptides, single concentration BLI (Table S4)
# [2] = crude NNK peptides, single concentration BLI (Table S3)
SMILES,Kd (FGF-R4 ECD; [1]),Kd (FGF-R1C ECD),Kd (FGF-R3C ECD),Kd (FGF-R4 ECD; [2])
CC[C@H](C)[C@@H]1NC(=O)[C@H](CCCCN)NC(=O)[C@H](Cc2ccc(O)cc2)NC(=O)[C@H](Cc2ccc(O)cc2)NC(=O)[C@H](Cc2c[nH]cn2)NC(=O)[C@H](Cc2c[nH]c3ccccc23)NC(=O)[C@H](CC(C)C)NC(=O)[C@@H](NC(=O)[C@H](CCSC)NC(C)=O)CSSC[C@@H](C(=O)NCC(=O)N[C@@H](CO)C(=O)NCC(=O)N[C@@H](CO)C(=O)N[C@@H](CC(=O)O)C(=O)N[C@@H](Cc2ccc(O)cc2)C(=O)N[C@@H](CCCCN)C(=O)N[C@@H](CC(=O)O)C(=O)N[C@@H](CC(=O)O)C(=O)N[C@@H](CC(=O)O)C(=O)N[C@@H](CC(=O)O)C(=O)N[C@@H](CCCCN)C(N)=O)NC(=O)[C@H](CCCCN)NC(=O)[C@H](CCC(N)=O)NC(=O)[C@H](CCCNC(=N)N)NC(=O)[C@H](CCCNC(=N)N)NC(=O)[C@H](Cc2ccccc2)NC1=O (Ac-MCLWHYYKIFRRQKCGSGSDYKDDDDK-NH2; disulfide 2-15),8 nM,96 nM,> 10000 nM,–
CSCC[C@H](NC(C)=O)C(=O)N[C@H]1CSSC[C@@H](C(=O)NCC(=O)N[C@@H](CO)C(=O)NCC(=O)N[C@@H](CO)C(=O)N[C@@H](CC(=O)O)C(=O)N[C@@H](Cc2ccc(O)cc2)C(=O)N[C@@H](CCCCN)C(=O)N[C@@H](CC(=O)O)C(=O)N[C@@H](CC(=O)O)C(=O)N[C@@H](CC(=O)O)C(=O)N[C@@H](CC(=O)O)C(=O)N[C@@H](CCCCN)C(N)=O)NC(=O)[C@H](CCC(=O)O)NC(=O)[C@H](CCCNC(=N)N)NC(=O)[C@H](CCCNC(=N)N)NC(=O)[C@H](Cc2c[nH]cn2)NC(=O)[C@H](Cc2ccccc2)NC(=O)[C@H](CCC(N)=O)NC(=O)[C@H](CC(C)C)NC(=O)[C@H](Cc2ccc(O)cc2)NC(=O)[C@H](Cc2ccc(O)cc2)NC(=O)[C@H](Cc2c[nH]c3ccccc23)NC(=O)[C@H](CC(C)C)NC1=O (Ac-MCLWYYLQFHRRECGSGSDYKDDDDK-NH2; disulfide 2-14),5 nM,21 nM,> 10000 nM,–
CC[C@H](C)[C@@H]1NC(=O)[C@H](CCCCN)NC(=O)[C@H](Cc2ccc(O)cc2)NC(=O)[C@H](CC(C)C)NC(=O)[C@H]([C@@H](C)CC)NC(=O)[C@H]([C@@H](C)CC)NC(=O)[C@H](CC(N)=O)NC(=O)[C@@H](NC(=O)[C@H](CCSC)NC(C)=O)CSSC[C@@H](C(=O)NCC(=O)N[C@@H](CO)C(=O)NCC(=O)N[C@@H](CO)C(=O)N[C@@H](CC(=O)O)C(=O)N[C@@H](Cc2ccc(O)cc2)C(=O)N[C@@H](CCCCN)C(=O)N[C@@H](CC(=O)O)C(=O)N[C@@H](CC(=O)O)C(=O)N[C@@H](CC(=O)O)C(=O)N[C@@H](CC(=O)O)C(=O)N[C@@H](CCCCN)C(N)=O)NC(=O)[C@H](CCCNC(=N)N)NC(=O)[C@H](CC(N)=O)NC(=O)[C@H](CCCCN)NC(=O)[C@H](CCSC)NC1=O (Ac-MCNIILYKIMKNRCGSGSDYKDDDDK-NH2; disulfide 2-14),–,> 10000 nM,> 10000 nM,> 10000 nM
CC[C@H](C)[C@@H]1NC(=O)[C@H](CC(N)=O)NC(=O)[C@@H](NC(=O)[C@H](CCSC)NC(C)=O)CSSC[C@@H](C(=O)NCC(=O)N[C@@H](CO)C(=O)NCC(=O)N[C@@H](CO)C(=O)N[C@@H](CC(=O)O)C(=O)N[C@@H](Cc2ccc(O)cc2)C(=O)N[C@@H](CCCCN)C(=O)N[C@@H](CC(=O)O)C(=O)N[C@@H](CC(=O)O)C(=O)N[C@@H](CC(=O)O)C(=O)N[C@@H](CC(=O)O)C(=O)N[C@@H](CCCCN)C(N)=O)NC(=O)[C@H](C(C)C)NC(=O)[C@H](CO)NC(=O)[C@H](CC(C)C)NC(=O)[C@H]([C@@H](C)CC)NC(=O)[C@H](CCCCN)NC(=O)[C@H](Cc2ccc(O)cc2)NC(=O)[C@H](CC(C)C)NC(=O)[C@H](CC(C)C)NC1=O (Ac-MCNILLYKILSVCGSGSDYKDDDDK-NH2; disulfide 2-13),–,> 10000 nM,> 10000 nM,105 nM
CC[C@H](C)[C@@H]1NC(=O)[C@H](Cc2ccc(O)cc2)NC(=O)[C@H](C)NC(=O)[C@H](C(C)C)NC(=O)[C@H](Cc2ccc(O)cc2)NC(=O)CNC(=O)[C@H](Cc2c[nH]cn2)NC(=O)[C@H]([C@@H](C)CC)NC(=O)[C@H]([C@@H](C)CC)NC(=O)[C@H](CO)NC(=O)[C@H](CC(C)C)NC(=O)[C@H](CC(N)=O)NC(=O)[C@@H](NC(=O)[C@H](CCSC)NC(C)=O)CSSC[C@@H](C(=O)NCC(=O)N[C@@H](CO)C(=O)NCC(=O)N[C@@H](CO)C(=O)N[C@@H](CC(=O)O)C(=O)N[C@@H](Cc2ccc(O)cc2)C(=O)N[C@@H](CCCCN)C(=O)N[C@@H](CC(=O)O)C(=O)N[C@@H](CC(=O)O)C(=O)N[C@@H](CC(=O)O)C(=O)N[C@@H](CC(=O)O)C(=O)N[C@@H](CCCCN)C(N)=O)NC1=O (Ac-MCNLSIIHGYVAYICGSGSDYKDDDDK-NH2; disulfide 2-15),1 nM,> 10000 nM,> 10000 nM,–
CC[C@H](C)[C@@H]1NC(=O)[C@H](CCCCN)NC(=O)[C@H](Cc2ccccc2)NC(=O)[C@H](Cc2ccccc2)NC(=O)[C@H](Cc2c[nH]cn2)NC(=O)[C@H]([C@@H](C)CC)NC(=O)[C@@H]2CCCN2C(=O)[C@@H](NC(=O)[C@H](CCSC)NC(C)=O)CSSC[C@@H](C(=O)NCC(=O)N[C@@H](CO)C(=O)NCC(=O)N[C@@H](CO)C(=O)N[C@@H](CCC(=O)O)C(=O)N[C@@H](CCC(=O)O)C(=O)NCC(=O)N[C@@H](CO)C(=O)NCC(=O)N[C@@H](CO)C(=O)N[C@@H](CC(=O)O)C(=O)N[C@@H](Cc2ccc(O)cc2)C(=O)N[C@@H](CCCCN)C(=O)N[C@@H](CC(=O)O)C(=O)N[C@@H](CC(=O)O)C(=O)N[C@@H](CC(=O)O)C(=O)N[C@@H](CC(=O)O)C(=O)N[C@@H](CCCCN)C(N)=O)NC(=O)[C@H](Cc2c[nH]cn2)NC(=O)[C@H](CCCNC(=N)N)NC(=O)[C@H](Cc2ccc(O)cc2)NC(=O)[C@H](C(C)C)NC1=O (Ac-MCPIHFFKIVYRHCGSGSEEGSGSDYKDDDDK-NH2; disulfide 2-14),10 nM,10 nM,> 10000 nM,–
CC[C@H](C)[C@@H]1NC(=O)[C@H](CC(C)C)NC(=O)[C@H](Cc2c[nH]c3ccccc23)NC(=O)[C@H](CCCCN)NC(=O)[C@@H]2CCCN2C(=O)[C@@H](NC(=O)[C@H](CCSC)NC(C)=O)CSSC[C@@H](C(=O)NCC(=O)N[C@@H](CO)C(=O)NCC(=O)N[C@@H](CO)C(=O)N[C@@H](CC(=O)O)C(=O)N[C@@H](Cc2ccc(O)cc2)C(=O)N[C@@H](CCCCN)C(=O)N[C@@H](CC(=O)O)C(=O)N[C@@H](CC(=O)O)C(=O)N[C@@H](CC(=O)O)C(=O)N[C@@H](CC(=O)O)C(=O)N[C@@H](CCCCN)C(N)=O)NC(=O)[C@H](CC(N)=O)NC(=O)[C@H](CC(C)C)NC(=O)[C@H](CC(C)C)NC(=O)[C@H](C(C)C)NC(=O)[C@H](CCCCN)NC1=O (Ac-MCPKWLIKVLLNCGSGSDYKDDDDK-NH2; disulfide 2-13),–,> 10000 nM,> 10000 nM,4190 nM
CSCC[C@H](NC(C)=O)C(=O)N[C@H]1CSSC[C@@H](C(=O)NCC(=O)N[C@@H](CO)C(=O)NCC(=O)N[C@@H](CO)C(=O)N[C@@H](CC(=O)O)C(=O)N[C@@H](Cc2ccc(O)cc2)C(=O)N[C@@H](CCCCN)C(=O)N[C@@H](CC(=O)O)C(=O)N[C@@H](CC(=O)O)C(=O)N[C@@H](CC(=O)O)C(=O)N[C@@H](CC(=O)O)C(=O)N[C@@H](CCCCN)C(N)=O)NC(=O)[C@H]([C@@H](C)O)NC(=O)[C@H](CCSC)NC(=O)[C@H](CC(C)C)NC(=O)[C@H](CCCNC(=N)N)NC(=O)[C@H](Cc2c[nH]c3ccccc23)NC(=O)[C@H](CC(C)C)NC(=O)[C@H](CC(C)C)NC(=O)[C@H](Cc2ccccc2)NC(=O)[C@H](Cc2ccc(O)cc2)NC(=O)[C@H](CCCCN)NC(=O)[C@@H]2CCCN2C1=O (Ac-MCPKYFLLWRLMTCGSGSDYKDDDDK-NH2; disulfide 2-14),–,> 10000 nM,> 10000 nM,1840 nM
